The subject of test [1] is fracture callus of fractured femur. Kind of test: Femur fracture model, microCT of the fracture callus (BV/TV, TbTh, BV, TbSp). Format: in vivo, Swiss Webster mice. The following applies: local injections.
Test [2] has as its system pre-osteoblastic cell line MC3T3-E1. Kind of test: Alkaline phosphatase (ALP) activity of pre-osteoblastic cells after 7 days exposure. Format: cell-based, mouse. The following applies: 0.1-5 nM in culture media for 7 days, vs DMSO alone.
A further test relates to healed fractured femur. Kind of test: Postmortem four-point bend of the healed femur (peak/max load, stiffness, work to fracture). It is filed as in vivo, Swiss Webster mice. As to conditions: for Bone strength (Max Load, Work to Fracture): n=5. Here is the method: The term “Peak Load” means a postmortem 4 point bend of the healed femur. Peak load represents the maximum force the healed femur withstood before it refractured.
The targeted conjugates were synthesized using standard Fmoc solid-phase peptide synthesis, as described above. To ensure the conjugates' activity, mouse pre-osteoblast ([…]) cells were treated with the targeted and untargeted compounds for three days at concentrations from 1 pM to 100 nM. After three days of treatment, the cells were harvested, and the RNA was purified from the cells. Expression levels of ALP, RUNx2 (transcription factor for osteoblast differentiation), osterix (OSX), osteopontin (OPN), collagen 1A (Col-1A), OPG, RANKL, sclerostin gene (SOST), and OC were quantified via quantitative reverse transcription polymerase chain reaction (RT-qPCR). Once the biological activity of the conjugates was confirmed, they were tested in vivo in a fracture model. Aseptic surgical techniques were used to place a 23-gage needle as in intramedullary nail in the femur of anesthetized, 12-week-old Swiss Webster mice for internal fixation before fracture. Femur fractures were induced using a drop weight fracture device from RISystem. The mice received buprenorphine for three days post fracture. […] Fracture healing was assessed using microCT (Scanco Medical Ag). Morphometric parameters were quantified in the 100 widest slices of the fracture callus. Trabecular thickness (TbTh), trabecular spacing (TbSp), total volume (TV), and volume of calcified callus (BV) were calculated. Fractured femurs were tested for strength in a four-point bend to failure using an Electro Force TestBench (TA Instruments). Lower supports were 10 mm apart on the anterior face of the femur in contact with the proximal and distal diaphysis. Upper supports were 4 mm apart and spanned the entire fracture callus on the diaphysis. Force was applied from the posterior face of the femur with a displacement rate of 0.3 mm/sec. Peak load, yield load, stiffness, displacement post yield, work to fracture, and deformation data were generated. Statistical analysis was performed using a two-way analysis of variance (ANOVA) and a Tukey post-hoc analysis with significance reported at the 95% confidence level. All animal experiments were performed in accordance with protocols approved by Purdue University's Institutional Animal Care and Use Committee (IACUC).
Referring to FIGS. 26a, 26b, and 26c, in vivo fracture healing efficacy of VIP_mp4_(D)E10 conjugate on Swiss Webster fracture-bearing mice (n=5) after 3 weeks was reflected as BV/TV, Max Load, and Work to Fracture respectively. […]

Test [3] relates to fracture callus of fractured femur. Kind of test: Femur fracture model, microCT of the fracture callus (BV/TV, TbTh, BV, TbSp). Format: in vivo, Swiss Webster mice. From the text: All in vivo data included herein are from swiss Webster mice. All mice received an osteotomy on their right femur and received subcutaneous drug administration daily for either 2, 3 or 4 weeks, as indicated, for each compound. 1× concentration represents 1 nmol/day, 10× represents 10 nmol/day, 100× represents 100 nmol/day most studies have an n of 5.
The term “BV/TV” means the bone volume divided by total volume of the 100 thickest micro CT slices of the fracture callus.
The term “TbTh” means the trabecular thickness of the 100 thickest micro CT slices of the fracture callus.
The term “[…]” means the overall bone volume of the 100 thickest micro CT slices of the fracture callus.
The term “TbSp” means the spacing between the trabecula in the 100 thickest micro CT slices of the fracture callus.
The targeted conjugates were synthesized using standard Fmoc solid-phase peptide synthesis, as described above. To ensure the conjugates' activity, mouse pre-osteoblast ([…]) cells were treated with the targeted and untargeted compounds for three days at concentrations from 1 pM to 100 nM. After three days of treatment, the cells were harvested, and the RNA was purified from the cells. Expression levels of ALP, RUNx2 (transcription factor for osteoblast differentiation), osterix (OSX), osteopontin (OPN), collagen 1A (Col-1A), OPG, RANKL, sclerostin gene (SOST), and OC were quantified via quantitative reverse transcription polymerase chain reaction (RT-qPCR). Once the biological activity of the conjugates was confirmed, they were tested in vivo in a fracture model. Aseptic surgical techniques were used to place a 23-gage needle as in intramedullary nail in the femur of anesthetized, 12-week-old Swiss Webster mice for internal fixation before fracture. Femur fractures were induced using a drop weight fracture device from RISystem. The mice received buprenorphine for three days post fracture. The mice were dosed subcutaneously each day for three weeks or 17 days. Fracture healing was assessed using microCT (Scanco Medical Ag). Morphometric parameters were quantified in the 100 widest slices of the fracture callus. Trabecular thickness (TbTh), trabecular spacing (TbSp), total volume (TV), and volume of calcified callus (BV) were calculated. Fractured femurs were tested for strength in a four-point bend to failure using an Electro Force TestBench (TA Instruments). Lower supports were 10 mm apart on the anterior face of the femur in contact with the proximal and distal diaphysis. Upper supports were 4 mm apart and spanned the entire fracture callus on the diaphysis. Force was applied from the posterior face of the femur with a displacement rate of 0.3 mm/sec. Peak load, yield load, stiffness, displacement post yield, work to fracture, and deformation data were generated. Statistical analysis was performed using a two-way analysis of variance (ANOVA) and a Tukey post-hoc analysis with significance reported at the 95% confidence level. All animal experiments were performed in accordance with protocols approved by Purdue University's Institutional Animal Care and Use Committee (IACUC).

Another test deals with T1, VPAC-2 (Homo sapiens, UniProt P41587).
T1 sequence (P41587 24-438): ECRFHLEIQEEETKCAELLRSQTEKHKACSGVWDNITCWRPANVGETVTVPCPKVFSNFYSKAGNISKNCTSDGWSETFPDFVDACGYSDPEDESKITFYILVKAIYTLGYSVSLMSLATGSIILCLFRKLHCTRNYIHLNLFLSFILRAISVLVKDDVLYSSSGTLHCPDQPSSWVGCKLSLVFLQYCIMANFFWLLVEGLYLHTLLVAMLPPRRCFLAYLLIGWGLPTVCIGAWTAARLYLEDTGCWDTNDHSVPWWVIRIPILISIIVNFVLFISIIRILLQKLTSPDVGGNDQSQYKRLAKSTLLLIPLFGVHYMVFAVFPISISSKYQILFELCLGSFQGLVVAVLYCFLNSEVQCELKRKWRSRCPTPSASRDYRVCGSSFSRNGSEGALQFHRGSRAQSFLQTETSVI
As to conditions: VIP compared with PACAP; cited from earlier work.

For another test, the target named is T2, VPAC-1 (Homo sapiens, UniProt P32241).
T2 sequence (P32241 31-457): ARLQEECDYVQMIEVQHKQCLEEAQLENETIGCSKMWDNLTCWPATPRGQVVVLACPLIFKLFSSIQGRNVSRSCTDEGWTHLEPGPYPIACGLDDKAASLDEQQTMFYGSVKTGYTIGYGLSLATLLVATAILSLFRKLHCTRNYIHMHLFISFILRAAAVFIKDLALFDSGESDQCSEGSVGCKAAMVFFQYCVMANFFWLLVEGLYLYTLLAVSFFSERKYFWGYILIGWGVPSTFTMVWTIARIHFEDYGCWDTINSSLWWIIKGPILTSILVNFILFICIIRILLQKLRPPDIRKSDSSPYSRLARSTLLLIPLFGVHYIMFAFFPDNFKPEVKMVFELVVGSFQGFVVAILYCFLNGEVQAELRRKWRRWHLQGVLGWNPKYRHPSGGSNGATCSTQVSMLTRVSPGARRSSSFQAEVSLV
As to conditions: VIP compared with PACAP; cited from earlier work.

Setting [4] is: 2 weeks, daily sc, 1 to 100 nmol/day.
The mark [5] stands for this setting: 3 weeks, 0.1, 1, 10 nmol per day sc, n=5.
Where [6] appears, read: 4 weeks, daily sc, various concentrations from 1 to 100 nmol/day.

Primed or numbered codes have the meaning given here. Where no end group is shown, it is not given here. [ ]: non-standard residue; d: D form. PEG2′ = PEG2 spacer

As for `Cc1ncc(CO)c(C)c1O` [DOP, 4-deoxypyridoxine], in test [1], the Fracture healing result is on record as “acceleration of fracture healing”.
For `CC(C)Oc1ccc(-c2nc(-c3cccc4c3CC[C@@H]4NCCO)no2)cc1C#N` [ozanimod, Ozanimod], the Fracture healing entry in test [1] is given as “acceleration of fracture healing”. Further, the “Alkaline phosphatase (ALP) activity” value in test [2] is “boost”.
On to “Amylin(1-8)-D10: amino acid 1-8 of native amylin attached to 4 peg2 spacers then ten aspartic acid (KCNTATCA[PEG2′][PEG2′][PEG2′][PEG2′]DDDDDDDDDD; not fully specified (bridges); ends and bridges not checked; UniProt P10997 34-41, looked up, fragment)”, for which the “Bone strength (Max Load, Work to Fracture)” value in the test with healed fractured femur (3 weeks, 1, 10, 100 nmol per day sc) is listed as “improves bone strength”. The “Bone density (BV/TV) at the fracture calluses” value in test [3] (3 weeks, 1, 10, 100 nmol per day sc, n=5) is reported as “raises bone density”.
“BFP-D10: bone forming peptide conjugated with 10 aspartate acids, SEQ ID NO: 1 DDDDDDDDDDGQGFSYPYKAVFSTQ (BFP D10)”: the “Peak load of fractured femurs, ranking as compared to PBS” value in the test with healed fractured femur (100 nmol/day (100×), after 2 weeks) is “obtained the maximum peak load”. Further, in test [3] (setting [4]), the BV/TV entry was “dose dependent manner” and the TbSp entry is “dose dependent manner”.
Turning to “CBM D10: collagen binding motif of osteopontin conjugated with 10 aspartate acids”, the BV/TV entry in test [3] (3 weeks, 0.1, 1 and 10 nmol/day) is “dose dependent manner”.
For “CGRP (D)E10: full natural 37 amino acid CGRP, cyclized 2-7, C-terminal 4 minipeg spacers and ten D glutamic acids”, the “Bone strength (Max Load, Work to Fracture)” value with healed fractured femur (3 weeks, 0.1, 1, 10 nmol per day sc) was “raises bone strength”. Moreover, in test [3] (setting [5]), the “Bone density (BV/TV) at the fracture calluses” value is on record as “raises bone density” and the “Bone volume (BV)” value is reported as “stimulates more bone to be generated”.
On to “Ghrelin-D10: Ghrelin D10 with Serine (Ser)-3 replaced with diaminopropinoic acid”, for which, in test [3] (setting [6]), the BV/TV result was “dose dependent manner”.
Take “MGF D10: Mechano-growth factor conjugated with 10 aspartate acids, SEQ ID NO: 11 DDDDDDDDDDYQPPSTNKNTKSQRRKGSTFEEHK (Mechano-growth factor (MGF) D10, an IGF-I fragment)”: the BV/TV entry in test [3] (setting [6]) is given as “dose dependent manner”.
Take “OGP-D10: osteogenic growth peptide conjugated with 10 aspartate acids, SEQ ID NO: 2 DDDDDDDDDDALKRQGRTLYGFGG (OGP D10)”: in test [3] (setting [4]), the BV/TV entry is listed as “dose dependent manner”, the TbSp entry is “dose dependent manner” and the TbTh result was “dose dependent manner”.
As for “P4 D10: P4 (knuckle epitope fragment of hBMP-2) conjugated with 10 aspartate acids (HKIPKASSVPTELSAISTLYLDDDDDDDDDD; P4 D10-a BMP2 fragment)”, in test [3] (4 weeks, 1 nmol/day), the “Bone volume (BV)” value is “healing was reflected”. In addition, in test [3] (setting [6]), the BV/TV result is on record as “dose dependent manner”.
As to “Pituitary Adenylyl Cyclase Activating Peptide [PACAP]”, in the test with VPAC-2, the “Affinity for VPAC-2” value was “equal affinity”. In the test with VPAC-1, the “Affinity for VPAC-1” value is given as “equal affinity”.
For the compound “Preptin-D10: Preptin conjugated with 10 aspartate acids, SEQ ID NO: 3 (HDVSTSQAVLPDDFPRYDDDDDDDDDD; Preptin D10)”, the “Bone volume (BV)” value in test [3] (2 weeks, daily sc, 1, 10, 100 nmol/day) is reported as “dose dependent manner”. In addition, in test [3] (setting [4]), the BV/TV entry was “dose dependent manner” and the TbTh result is recorded as “dose dependent manner”.
As to “pBMP9 D10: 23-residue peptide from the knuckle epitope of human BMP-9 targeted with D10 (CGGKVGKACCVPTKLSPISVLYK[miniPEG][miniPEG][miniPEG][miniPEG]DDDDDDDDDD; cysteine pairing not given here)”, the “Bone volume (BV)” value in test [3] (4 weeks, daily sc, 1, 10, 100 nmol/day) is reported as “dose dependent manner”. Also, the BV/TV entry in test [3] (setting [6]) is listed as “dose dependent manner”.
Regarding “substance P D10: substance P with 4 mini PEG linker and conjugated with 10 aspartate acids (DDDDDDDDDDRPKPQQFFGLM; 4 mini PEG linker; substance P 4 mini PEG D10 with; (10)..(11) 4 mini PEG linker)”, the “Peak load the healed femur can withstand” value in the test with healed fractured femur (10× (10 nmol/day), 4 weeks) is given as 30-35 Newtons. In addition, the BV/TV entry in test [3] (setting [6]) is reported as “dose dependent manner”.

The record behind these values is patent publication US20210206820A1 (Purdue Research Foundation, priority 2018, published 2021).
